# Where no end group is shown, it is not given here.
# Tests used:
# HUVEC = HUVEC spreading on coated substrates; type: cell-based, human; details: for percent spread HUVEC on immobilized substrate: data not shown
# Description: FIGS. 14A, 14B and 14C display α3β1 and αvβ3 integrin-mediated spreading of endothelial cells on thrombospondin-1. […] Results are expressed as percent of the response for untreated cells, mean±S.D., n=3.
# Adhesion assays of cells other than small cell lung carcinoma (SCLC)-Adhesion was measured on polystyrene or glass substrates coated with peptides or proteins as previously described (Guo et al., 1992). Peptides dissolved in PBS at 0.4 to 50 μM were incubated in polystyrene microliter plate wells overnight at 4° C. The wells were washed 3 times with distilled water. Adsorbed peptide was quantified using the BCA assay (Pierce Chemical) measuring absorbance at 570 and 630 nm as described by the supplier's protocol. The assay for adsorption was calibrated using purified peptide in solution as a standard. After blocking with 1% BSA in Dulbecco's PBS, adhesion assays were performed by adding cells suspended in DMEM (BAE cells) or medium 199 (human cells) containing 1 mg/ml BSA. Cell attachment and spreading was quantified microscopically.
# [1] = system: chick chorioallantoic membrane (CAM) angiogenesis; assay: Chick chorioallantoic membrane (CAM) angiogenesis assay; type: in vivo, chicken; details: for Angiogenic response (% inhibition): relative to control gels, mean ± SD
# Description: Fertilized Leghorn chicken eggs were obtained from Ramona Duck farm (Westminster, Calif.). At day 3 of development, the embryos were placed on 100 mm petri dishes. Assays were performed as previously described (Iruela-Arispe et al., 1999). […] Peptides were filtered on Centricon P100 prior to their analysis on the CAM assays to eliminate traces of endotoxin. Pellets were applied to the outer ⅓ of the CAM, and the assay was performed for 24 h. Detection of capillary growth was done by injection of FITC-dextran in the bloodstream and observation of the pellets under a fluorescent inverted microscope. Positive controls (growth factors and vehicle), as well as negative controls (vehicle alone) were placed in the same CAM and used as reference of 100% stimulation or baseline inhibition (0%), and response to the peptides was determined according to these internal controls. Assays were performed in duplicate in each CAM and in four independent CAMs (total of 8 pellets).
sequence,measurement,setting,value
FQGVLQNVRFVF [Peptide 678],inhibition of HUVEC spreading on vitronectin,HUVEC,not significantly inhibited
same,inhibition of HUVEC spreading on TSP1,HUVEC; 20 μM peptide 678 (FIG. 14B),70±7%
same,percent spread HUVEC on immobilized substrate,HUVEC; confluent cells,3±1%
same,percent spread HUVEC on immobilized substrate,HUVEC; sparse cultures,12±3%
same,Angiogenic response (% inhibition),[1]; 5 μM peptide,2 ± 5%
same,Angiogenic response (% inhibition),[1]; 10 μM peptide,17 ± 7%
same,Angiogenic response (% inhibition),[1]; 20 μM peptide,37 ± 9%
same,angiogenesis stimulated by FGF2,[1]; 20 micromolar,68±5 % of control
same,angiogenesis stimulated by VEGF,[1]; 20 micromolar,73±7 % of control
same,angiogenesis stimulated by a mixture of both growth factors,[1]; 20 micromolar,59±5 % of control

# Reference: patent publication US8114406B2, “Peptides and their utility in modulation of behavior of cells expressing α3β1 integrins” (The United States of America as represented by the …, priority 1999, dated 2012)
